{
  "source": "patent US20160220569A1",
  "about": "“CDK4/6 Inhibitor Dosage Formulations For The Protection Of Hematopoietic Stem And Progenitor Cells During Chemotherapy” (G1 Therapeutics, Inc., priority 2015, published 2016)",
  "assay": "14-day oral gavage toxicokinetic study in rats",
  "assay_type": "in vivo",
  "conditions": "both sexes, rat, plasma, po; for concentration at 0.5 h / concentration at 1 h / concentration at 2 h / concentration at 4 h / concentration at 8 h / concentration at 12 h / concentration at 24 h: Mean Compound 1 Plasma Concentration, rats, Overall; for half-life: read-out: t½ (converted)",
  "protocol": "Plasma was obtained from blood samples collected from rats in a composite sampling scheme, with 3 samples collected per sex, per dose, at each target collection time, as illustrated in Table 21 to Table 25. Samples were collected from the vehicle control group on Day 1 and Day 14 at 3 hour after administration. […] Blood samples were collected in tubes containing K3EDTA as an anticoagulant and placed on ice until processed to plasma via centrifugation. Samples were stored frozen at −80° C. until shipment to the bioanalytical laboratory for analysis.\nThe following parameters were determined:\nCmax: Maximum observed plasma concentration (ng/mL).\nA value of 0 ng/mL was assigned to all values below the lower limit of quantitation (BLQ, <10.0 ng/mL).\nAUC(0-inf): Area under the plasma concentration vs. time curve extrapolated from 0 to infinity (ng*h/mL), calculated as AUC(0-t)+AUC(t-inf) where AUC(t-inf) is calculated as last measurable concentration (CLast) divided by ke, where ke is the elimination rate constant determined by linear regression of the last three analytically measured points on the log plasma concentration vs. time curve. The selection criteria of the data points for inclusion in the calculation of ke required that at least three data points representing the terminal phase (after Tmax) were regressed and that R2≧0.850 when rounded.\nCL: Clearance (L/h/kg), calculated as the dose divided by AUC(0-t).\nVd: Volume of distribution (L/kg), calculated as dose divided by the product of ke and AUC(0-inf).\nVdss: Steady state volume of distribution (L/kg), calculated as clearance […] mean residence time, where mean residence time is calculated as the area under the first moment curve divided by AUC(0-t).\nt½: Elimination half-life (h), calculated as ln(2)/ke, where ke is the elimination rate constant determined by linear regression. Half-life was defined as not determined if regression criteria (specified in AUC(0-inf) above) were not met.\nCmax/Dose: Normalized Cmax, calculated as Cmax divided by total dose.\nAUC/Dose: Normalized AUC, calculated as AUC(0-t) divided by total dose.\nii. Statistical Analysis Mean and standard deviation (SD) were calculated in Watson. Values of BLQ were assigned a value of 0 ng/mL for mean calculations. Concentration values and derived TK parameters were reported to three significant figures.",
  "key": {"[1]": {"conditions": "2 mg/kg, oral 2 mg/kg, Study Day 1, Overall"}, "[2]": {"conditions": "2 mg/kg, oral 2 mg/kg, Study Day 14, Overall"}, "[3]": {"conditions": "5 mg/kg, oral 5 mg/kg, Study Day 1, Overall"}, "[4]": {"conditions": "5 mg/kg, oral 5 mg/kg, Study Day 14, Overall"}},
  "note": "Read-outs that look alike come from different tables or passages of the source.",
  "data": [
    {"smiles": "CN1CCN(c2ccc(Nc3ncc4cc5n(c4n3)C3(CCCCC3)CNC5=O)nc2)CC1", "note": "[Compound 1, 2′-((5-(4-methylpiperazin-1-yl)pyridin-2-yl)amino)-7′,8′-dihydro-6′H-spiro[cyclohexane-1,9′-pyrazino[1′,2′:1,5]pyrrolo[2,3-d]pyrimidin]-6′-one]", "values": [
      {"measurement": "concentration at 0.5 h", "setting": "2 mg/kg, oral 2 mg/kg, Day 1, 0.5 h", "value": 83.7, "unit": "ng/mL"},
      {"measurement": "concentration at 1 h", "setting": "2 mg/kg, oral 2 mg/kg, Day 1, 1 h", "value": 74.3, "unit": "ng/mL"},
      {"measurement": "concentration at 2 h", "setting": "2 mg/kg, oral 2 mg/kg, Day 1, 2 h", "value": 149, "unit": "ng/mL"},
      {"measurement": "concentration at 4 h", "setting": "2 mg/kg, oral 2 mg/kg, Day 1, 4 h", "value": 150, "unit": "ng/mL"},
      {"measurement": "concentration at 8 h", "setting": "2 mg/kg, oral 2 mg/kg, Day 1, 8 h", "value": 93.6, "unit": "ng/mL"},
      {"measurement": "concentration at 12 h", "setting": "2 mg/kg, oral 2 mg/kg, Day 1, 12 h", "value": 67.9, "unit": "ng/mL"},
      {"measurement": "concentration at 24 h", "setting": "2 mg/kg, oral 2 mg/kg, Day 1, 24 h", "value": 6.5, "unit": "ng/mL"},
      {"measurement": "concentration at 0.5 h", "setting": "2 mg/kg, oral 2 mg/kg, Day 14, 0.5 h", "value": 88.2, "unit": "ng/mL"},
      {"measurement": "concentration at 1 h", "setting": "2 mg/kg, oral 2 mg/kg, Day 14, 1 h", "value": 78.5, "unit": "ng/mL"},
      {"measurement": "concentration at 2 h", "setting": "2 mg/kg, oral 2 mg/kg, Day 14, 2 h", "value": 142, "unit": "ng/mL"},
      {"measurement": "concentration at 4 h", "setting": "2 mg/kg, oral 2 mg/kg, Day 14, 4 h", "value": 119, "unit": "ng/mL"},
      {"measurement": "concentration at 8 h", "setting": "2 mg/kg, oral 2 mg/kg, Day 14, 8 h", "value": 103, "unit": "ng/mL"},
      {"measurement": "concentration at 12 h", "setting": "2 mg/kg, oral 2 mg/kg, Day 14, 12 h", "value": 51.9, "unit": "ng/mL"},
      {"measurement": "concentration at 24 h", "setting": "2 mg/kg, oral 2 mg/kg, Day 14, 24 h", "value": 4.32, "unit": "ng/mL"},
      {"measurement": "AUC(0-inf)", "setting": "[1]", "value": 1770, "unit": "ng·h/mL"},
      {"measurement": "AUC(0-t)", "setting": "[1]", "value": 1730, "unit": "ng·h/mL"},
      {"measurement": "Cmax", "setting": "[1]", "value": 150, "unit": "ng/mL"},
      {"measurement": "Tmax", "setting": "[1]", "value": 4, "unit": "h"},
      {"measurement": "half-life", "setting": "[1]", "value": 4, "unit": "h"},
      {"measurement": "AUC(0-inf)", "setting": "[2]", "value": 1550, "unit": "ng·h/mL"},
      {"measurement": "AUC(0-t)", "setting": "[2]", "value": 1530, "unit": "ng·h/mL"},
      {"measurement": "Cmax", "setting": "[2]", "value": 142, "unit": "ng/mL"},
      {"measurement": "Tmax", "setting": "[2]", "value": 2, "unit": "h"},
      {"measurement": "half-life", "setting": "[2]", "value": 3.46, "unit": "h"},
      {"measurement": "concentration at 0.5 h", "setting": "5 mg/kg, oral 5 mg/kg, Day 1, 0.5 h", "value": 252, "unit": "ng/mL"},
      {"measurement": "concentration at 1 h", "setting": "5 mg/kg, oral 5 mg/kg, Day 1, 1 h", "value": 300, "unit": "ng/mL"},
      {"measurement": "concentration at 2 h", "setting": "5 mg/kg, oral 5 mg/kg, Day 1, 2 h", "value": 391, "unit": "ng/mL"},
      {"measurement": "concentration at 4 h", "setting": "5 mg/kg, oral 5 mg/kg, Day 1, 4 h", "value": 445, "unit": "ng/mL"},
      {"measurement": "concentration at 8 h", "setting": "5 mg/kg, oral 5 mg/kg, Day 1, 8 h", "value": 318, "unit": "ng/mL"},
      {"measurement": "concentration at 12 h", "setting": "5 mg/kg, oral 5 mg/kg, Day 1, 12 h", "value": 168, "unit": "ng/mL"},
      {"measurement": "concentration at 24 h", "setting": "5 mg/kg, oral 5 mg/kg, Day 1, 24 h", "value": 22.1, "unit": "ng/mL"},
      {"measurement": "concentration at 0.5 h", "setting": "5 mg/kg, oral 5 mg/kg, Day 14, 0.5 h", "value": 348, "unit": "ng/mL"},
      {"measurement": "concentration at 1 h", "setting": "5 mg/kg, oral 5 mg/kg, Day 14, 1 h", "value": 389, "unit": "ng/mL"},
      {"measurement": "concentration at 2 h", "setting": "5 mg/kg, oral 5 mg/kg, Day 14, 2 h", "value": 470, "unit": "ng/mL"},
      {"measurement": "concentration at 4 h", "setting": "5 mg/kg, oral 5 mg/kg, Day 14, 4 h", "value": 430, "unit": "ng/mL"},
      {"measurement": "concentration at 8 h", "setting": "5 mg/kg, oral 5 mg/kg, Day 14, 8 h", "value": 262, "unit": "ng/mL"},
      {"measurement": "concentration at 12 h", "setting": "5 mg/kg, oral 5 mg/kg, Day 14, 12 h", "value": 151, "unit": "ng/mL"},
      {"measurement": "concentration at 24 h", "setting": "5 mg/kg, oral 5 mg/kg, Day 14, 24 h", "value": 18, "unit": "ng/mL"},
      {"measurement": "AUC(0-inf)", "setting": "[3]", "value": 5150, "unit": "ng·h/mL"},
      {"measurement": "AUC(0-t)", "setting": "[3]", "value": 5020, "unit": "ng·h/mL"},
      {"measurement": "Cmax", "setting": "[3]", "value": 445, "unit": "ng/mL"},
      {"measurement": "Tmax", "setting": "[3]", "value": 4, "unit": "h"},
      {"measurement": "half-life", "setting": "[3]", "value": 4.14, "unit": "h"},
      {"measurement": "AUC(0-inf)", "setting": "[4]", "value": 4930, "unit": "ng·h/mL"},
      {"measurement": "AUC(0-t)", "setting": "[4]", "value": 4820, "unit": "ng·h/mL"},
      {"measurement": "Cmax", "setting": "[4]", "value": 470, "unit": "ng/mL"},
      {"measurement": "Tmax", "setting": "[4]", "value": 2, "unit": "h"},
      {"measurement": "half-life", "setting": "[4]", "value": 4.08, "unit": "h"},
      {"measurement": "concentration at 0.5 h", "setting": "15 mg/kg, oral 15 mg/kg, Day 1, 0.5 h", "value": 899, "unit": "ng/mL"},
      {"measurement": "concentration at 1 h", "setting": "15 mg/kg, oral 15 mg/kg, Day 1, 1 h", "value": 1170, "unit": "ng/mL"},
      {"measurement": "concentration at 2 h", "setting": "15 mg/kg, oral 15 mg/kg, Day 1, 2 h", "value": 1490, "unit": "ng/mL"},
      {"measurement": "concentration at 4 h", "setting": "15 mg/kg, oral 15 mg/kg, Day 1, 4 h", "value": 1430, "unit": "ng/mL"},
      {"measurement": "concentration at 8 h", "setting": "15 mg/kg, oral 15 mg/kg, Day 1, 8 h", "value": 1230, "unit": "ng/mL"},
      {"measurement": "concentration at 12 h", "setting": "15 mg/kg, oral 15 mg/kg, Day 1, 12 h", "value": 767, "unit": "ng/mL"},
      {"measurement": "concentration at 24 h", "setting": "15 mg/kg, oral 15 mg/kg, Day 1, 24 h", "value": 84.5, "unit": "ng/mL"}
    ]}
  ]
}
